Values quoted from earlier work, collected in US11123091B2, “Device and methods for treating paranasal sinus conditions” (Intersect ENT, Inc., priority 2005, dated 2021).

System: cultured human airway epithelial cells
Conditions: for drug concentration at which dose response curves begin: beginning as low as; for EC50: read-out: EC50 levels of transcriptional response

| Structure (SMILES) | drug concentration at which dose response curves begin | EC50 [nM] |
| --- | --- | --- |
| C[C@@H]1C[C@H]2[C@@H]3CCC4=CC(=O)C=C[C@]4(C)[C@@]3(Cl)[C@@H](O)C[C@]2(C)[C@@]1(OC(=O)c1ccco1)C(=O)CCl [mometasone furoate] | 10^−12 M | 0.1 |
| CCC(=O)O[C@]1(C(=O)SCF)[C@H](C)C[C@H]2[C@@H]3C[C@H](F)C4=CC(=O)C=C[C@]4(C)[C@@]3(F)[C@@H](O)C[C@@]21C [fluticasone propionate] | 10^−12 M | 0.1 |
